# Measurements from patent publication US11459324B2, “O-glycoprotein-2-acetamido-2-deoxy-3-D-glycopyranosidase inhibitors” (BIOGEN MA INC., priority 2018, dated 2022).
# Biological target: T1, Recombinant full length human OGA enzyme (Homo sapiens, UniProt O60502)
# T1 construct: Recombinant full length human OGA enzyme was purchased from Origene; purchased Origene
# T1 sequence (O60502 1-916): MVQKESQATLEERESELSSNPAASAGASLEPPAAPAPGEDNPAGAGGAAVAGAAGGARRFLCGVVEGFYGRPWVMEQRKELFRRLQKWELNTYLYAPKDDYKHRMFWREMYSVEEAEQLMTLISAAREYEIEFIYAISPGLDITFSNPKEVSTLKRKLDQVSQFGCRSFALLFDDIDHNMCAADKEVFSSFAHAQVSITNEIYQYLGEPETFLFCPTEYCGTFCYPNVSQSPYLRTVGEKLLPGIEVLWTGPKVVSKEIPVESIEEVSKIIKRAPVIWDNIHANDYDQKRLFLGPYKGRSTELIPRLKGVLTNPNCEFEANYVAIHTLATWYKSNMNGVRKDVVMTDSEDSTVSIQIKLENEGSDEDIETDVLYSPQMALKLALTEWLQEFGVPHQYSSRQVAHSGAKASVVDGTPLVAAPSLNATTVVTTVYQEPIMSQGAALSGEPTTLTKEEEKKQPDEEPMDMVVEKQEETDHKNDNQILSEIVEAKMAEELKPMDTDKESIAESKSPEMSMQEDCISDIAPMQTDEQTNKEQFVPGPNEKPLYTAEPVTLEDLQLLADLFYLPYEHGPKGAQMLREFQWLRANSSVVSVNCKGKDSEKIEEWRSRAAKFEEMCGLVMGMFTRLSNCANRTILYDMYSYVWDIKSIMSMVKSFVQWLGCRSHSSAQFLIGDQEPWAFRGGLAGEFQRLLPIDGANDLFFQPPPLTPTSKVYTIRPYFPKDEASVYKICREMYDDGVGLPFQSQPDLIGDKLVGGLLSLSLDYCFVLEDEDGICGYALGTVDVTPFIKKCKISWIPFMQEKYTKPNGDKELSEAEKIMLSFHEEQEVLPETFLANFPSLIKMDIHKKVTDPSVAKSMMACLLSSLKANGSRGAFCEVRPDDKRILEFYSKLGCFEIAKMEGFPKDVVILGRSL
# Experiment: OGA Enzyme Inhibition Biochemical Assay
# Settings: 1 nM OGA, 100 μM 4-MUGlcNAc (Km), pH 6.4, 90 minutes at room temperature, 10-point dose-response from 20 μM
# Method: OGA Enzyme Inhibition Biochemical Assay
# Recombinant full length human OGA enzyme was purchased from Origene. 4-MUGlCNAc substrate was purchased from Sigma. All other reagents were purchased from Sigma or Fisher. Assay buffer consists of the McIlvaine buffer system, pH 6.4 (0.2M Na2HPO4 mixed with 0.1M citric acid) and 0.01% BSA. Reactions consist of 1 nM OGA, 100 μM 4-MUGlcNAc (Km), and compound in a final volume of 10 μl. Reactions were incubated for 90 minutes at room temperature and quenched with 40 μl of 3M glycine, pH 10 and read on a Perkin Elmer Envision plate reader (Ex: 355 nm/Em: 460 nm). Compounds were tested with a 10-point dose-response starting from 20 μM with a 4-fold dilution. Data was fit using GraphPad Prism using a 4-parameter fit with variable slope.
row,IC50 [nM],SMILES
1,4,"COc1ccc(CC2CCCN(Cc3cnc(NC(C)=O)s3)C2)cn1 (stereo not shown) [Example 1-11, N-(5-((3-((6-methoxypyridin-3-yl)methyl)piperidin-1-yl)methyl)thiazol-2-yl)acetamide]"
2,5,"CC(=O)Nc1ncc(CN2CCCC(Cc3ccc(C)cn3)C2)s1 (stereo not shown) [Example 1-31, N-(5-((3-((5-methylpyridin-2-yl)methyl)piperidin-1-yl)methyl)thiazol-2-yl)acetamide]"
3,450,"CC(=O)Nc1ncc(CN2CCCC(C)(Cc3ncc(F)cn3)C2)s1 (stereo not shown) [Example 2-34, N-(5-((3-((5-fluoropyrimidin-2-yl)methyl)-3-methylpiperidin-1-yl)methyl)thiazol-2-yl)acetamide]"
4,4.8,"CC(=O)Nc1nc(F)c(CN2CC[C@H](Cc3ccnc(C)c3)C2)s1 [Example 3-33, (S)—N-(4-fluoro-5-((3-((2-methylpyridin-4-yl)methyl)pyrrolidin-1-yl)methyl)thiazol-2-yl)acetamide]"
5,9,"COc1ccnc(C[C@H]2CCN(Cc3cnc(NC(C)=O)s3)C2)n1 [Example 3-12, (R)-N-(5-((3-((4-methoxypyrimidin-2-yl)methyl)pyrrolidin-1-yl)methyl)thiazol-2-yl)acetamide]"
6,11,"CC(=O)Nc1ncc(CN2CC[C@H](Cc3ncc(F)c(C)n3)C2)s1 [Example 3-11, (R)-N-(5-((3-((5-fluoro-4-methylpyrimidin-2-yl)methyl)pyrrolidin-1-yl)methyl)thiazol-2-yl)acetamide]"
7,2,"COc1cccc(CC2CCCN(Cc3cnc(NC(C)=O)s3)C2)n1 (stereo not shown) [Example 1-6, N-(5-((3-((6-methoxypyridin-2-yl)methyl)piperidin-1-yl)methyl)thiazol-2-yl)acetamide]"
8,2,"CC(=O)Nc1ncc(CN2CC[C@H](C)[C@@H](Cc3ncc(F)cn3)C2)s1 (single isomer, unassigned) [Example 2-37]"
9,< 1,"CC(=O)Nc1nc(F)c(CN2CC[C@H](Cc3cc(C)nc(C)c3)C2)s1 [Example 3-24, (S)—N-(5-((3-((2,6-dimethylpyridin-4-yl)methyl)pyrrolidin-1-yl)methyl)-4-fluorothiazol-2-yl)acetamide]"
10,250,"CC(=O)Nc1ncc(CN2CCC(Cc3ncc(F)cn3)C2C)s1 (stereo not shown) [Example 2-42, N-(5-((3-((5-fluoropyrimidin-2-yl)methyl)-2-methylpyrrolidin-1-yl)methyl)thiazol-2-yl)acetamide]"
11,< 1,"CC(=O)Nc1ncc(CN2CCC[C@H](Cc3ccnc(C)n3)C2)s1 [Example 3-4, (R)-N-(5-((3-((2-methylpyrimidin-4-yl)methyl)piperidin-1-yl)methyl)thiazol-2-yl)acetamide]"
12,540,"CC(=O)Nc1ncc(CN2CCCC(Cn3cc(C4CC4)cn3)C2)s1 (stereo not shown) [Example 4-6, N-(5-((3-((4-cyclopropyl-1H-pyrazol-1-yl)methyl)piperidin-1-yl)methyl)thiazol-2-yl)acetamide]"
13,2,"COc1cncc(CC2CCCN(Cc3cnc(NC(C)=O)s3)C2)n1 (stereo not shown) [Example 1-32, N-(5-((3-((6-methoxypyrazin-2-yl)methyl)piperidin-1-yl)methyl)thiazol-2-yl)acetamide]"
14,11,"CC(=O)Nc1ncc(CN2CCCC(Cc3cccnc3)C2)s1 (stereo not shown) [Example 1-27, N-(5-((3-(pyridin-3-ylmethyl)piperidin-1-yl)methyl)thiazol-2-yl)acetamide]"
15,970,"CCc1cnn(CC2CCCN(Cc3cnc(NC(C)=O)s3)C2)c1 (stereo not shown) [Example 4-2, N-(5-((3-((4-ethyl-1H-pyrazol-1-yl)methyl)piperidin-1-yl)methyl)thiazol-2-yl)acetamide]"
16,30,"CC(=O)Nc1ncc(CN2CCCC(Cc3csc(C)n3)C2)s1 (stereo not shown) [Example 1-36, N-(5-((3-((2-methylthiazol-4-yl)methyl)piperidin-1-yl)methyl)thiazol-2-yl)acetamide]"
17,33,"COc1cccc(CC2CCCN(Cc3cnc(NC(C)=O)s3)C2)c1 (stereo not shown) [Example 1-3, N-(5-((3-(3-methoxybenzyl)piperidin-1-yl)methyl)thiazol-2-yl)acetamide]"

row,IC50 [nM],SMILES
1,< 1,"CC(=O)Nc1nc(F)c(CN2C[C@@H](Cc3ncc(F)cn3)C[C@@H]2C)s1 [Example 3-41, N-(4-fluoro-5-(((2S,4R)-4-((5-fluoropyrimidin-2-yl)methyl)-2-methylpyrrolidin-1-yl)methyl)thiazol-2-yl)acetamide]"
2,14,"CC(=O)Nc1ncc(CN2CC[C@H](Cc3nccc(C)n3)C2)s1 [Example 3-10, (R)-N-(5-((3-((4-methylpyrimidin-2-yl)methyl)pyrrolidin-1-yl)methyl)thiazol-2-yl)acetamide]"
3,3900,"CC(=O)Nc1ncc(CN2C[C@@H](Cc3ncc(F)cn3)C[C@@H]2C(F)(F)F)s1 (single isomer, unassigned) [Example 2-46]"
4,20,"COc1ccc(CC2CCCN(Cc3cnc(NC(C)=O)s3)C2)nc1 (stereo not shown) [Example 1-10, N-(5-((3-((5-methoxypyridin-2-yl)methyl)piperidin-1-yl)methyl)thiazol-2-yl)acetamide]"
5,69,"COc1cncc(CC2CCN(Cc3cnc(NC(C)=O)s3)C2)c1 (stereo not shown) [Example 1-20, N-(5-((3-((5-methoxypyridin-3-yl)methyl)pyrrolidin-1-yl)methyl)thiazol-2-yl)acetamide]"
6,52,"CC(=O)Nc1ncc(CN2CCCC(Cc3ccccc3)C2)s1 (stereo not shown) [Example 1-28, N-(5-((3-benzylpiperidin-1-yl)methyl)thiazol-2-yl)acetamide]"
7,17,"COc1ccc(CC2CCN(Cc3cnc(NC(C)=O)s3)C2)cn1 (stereo not shown) [Example 1-23, N-(5-((3-((6-methoxypyridin-3-yl)methyl)pyrrolidin-1-yl)methyl)thiazol-2-yl)acetamide]"
8,1,"CC(=O)Nc1nc(F)c(CN2CCC(C(C)c3ncc(F)cn3)C2)s1 (stereo not shown) [Example 2-51, N-(4-fluoro-5-((3-(1-(5-fluoropyrimidin-2-yl)ethyl)pyrrolidin-1-yl)methyl)thiazol-2-yl)acetamide]"
9,31,"CC(=O)Nc1ncc(CN2CCC(Cc3cncc(F)c3)C2)s1 (stereo not shown) [Example 1-24, N-(5-((3-((5-fluoropyridin-3-yl)methyl)pyrrolidin-1-yl)methyl)thiazol-2-yl)acetamide]"
10,55,"CC(=O)Nc1ncc(CN2CCCC(Cn3ccnn3)C2)s1 (stereo not shown) [Example 4-20, N-(5-((3-((1H-1,2,3-triazol-1-yl)methyl)piperidin-1-yl)methyl)thiazol-2-yl)acetamide]"
11,1,"CC(=O)Nc1ncc(CN2C[C@H](Cc3ncc(F)cn3)C[C@H]2C)s1 (single isomer, unassigned) [Example 2-20]"
12,84,"CC(=O)Nc1ncc(CN2CCC(Cc3ccccn3)C2)s1 (stereo not shown) [Example 2-15, N-(5-((3-(pyridin-2-ylmethyl)pyrrolidin-1-yl)methyl)thiazol-2-yl)acetamide]"
13,2,"CCc1cc2ncnc(CC3CCCN(Cc4cnc(NC(C)=O)s4)C3)c2s1 (stereo not shown) [Example 1-42, N-(5-((3-((6-ethylthieno[3,2-d]pyrimidin-4-yl)methyl)piperidin-1-yl)methyl)thiazol-2-yl)acetamide]"
14,230,"CC(=O)Nc1ncc(CN2CCCC(Cn3cc(C)cn3)C2)s1 (stereo not shown) [Example 4-10, N-(5-((3-((4-methyl-1H-pyrazol-1-yl)methyl)piperidin-1-yl)methyl)thiazol-2-yl)acetamide]"
15,31,"CC(=O)Nc1ncc(CN2CCCC(Cc3cscn3)C2)s1 (stereo not shown) [Example 1-38, N-(5-((3-(thiazol-4-ylmethyl)piperidin-1-yl)methyl)thiazol-2-yl)acetamide]"
16,142,"CC(=O)Nc1ncc(CN2CCCC(Cc3cc(F)ccn3)C2)s1 (stereo not shown) [Example 1-13, N-(5-((3-((4-fluoropyridin-2-yl)methyl)piperidin-1-yl)methyl)thiazol-2-yl)acetamide]"
17,77,"CC(=O)Nc1nc(F)c(CN2CC[C@@H](Cc3ncc(F)cn3)C2)s1 [Example 3-36, (S)—N-(4-fluoro-5-((3-((5-fluoropyrimidin-2-yl)methyl)pyrrolidin-1-yl)methyl)thiazol-2-yl)acetamide]"
